Measured values reported in patent US20250263457A1, “Pharmaceutical Composition for Preventing and Treating Liver Disease Comprising Novel Peptide” (Pusan National University Industry-University Cooperation …, priority 2024, published 2025).

Experiments:
human pHSCs [1] = test: Western blot of HSC activation/inactivation markers in human pHSCs; assay type: cell-based; conditions: 40 ng/ml, vs control (FIG. 2C)
Method: To confirm the expression of cell activation markers, human pHSCs (5× 10^5 cells/ml) were treated with peptide YJ at a concentration of 20 or 40 ng/ml, and then proteins were extracted and subjected to Western blotting. At this time, as primary antibodies, anti-α-SMA antibody (Sigma-Aldrich, A5228), anti-GAPDH antibody (Bio-rad, MCA4739), anti-GFAP antibody (Dako, z0334), and anti-TFG-β antibody (Cell Signaling Technology, 3711) were used. In addition, as secondary antibodies, Goat anti-mouse IgG F(ab′) 2 antibody (HRP conjugate) (Enzo, ADI-SAB-100-J) and Goat anti-rabbit IgG antibody (HRP conjugate) (Enzo, ADI-SAB-300-J) were used.

CD44 [2] = test: CD44 and CD44ICD expression in liver tissue of mouse model (IHC, Western blot); assay type: in vivo, C57BL/6 male mice; conditions: 3.3 μg/kg i.p. every other day for three weeks
Text: (§1) To prepare alcohol-related liver disease mice, 8-week-old C57BL/6 male mice were fed with a Lieber DeCarli liquid diet (Dyets, 710260) containing 5% EtOH for 9 weeks, and then injected intraperitoneally with a vehicle (PBS) every other day along with feeding liquid diet for additional 3 weeks. As a control group for the EtOH diet, mice fed with a pair Lieber DeCarli liquid diet (Dyets, 710027) having the same total calories as the EtOH diet were used (FIG. 4A).
(§2) The alcohol-related liver disease mouse model established by the method of Example 5.1 was administered vehicle (PBS) or peptide YJ (3.3 μg/kg) intraperitoneally every other day for three weeks, and then blood was collected and liver tissue was extracted to confirm the liver disease treatment effect of peptide YJ.
The expression of CD44 and CD44ICD in liver tissues extracted from the experimental mice of Example 5.3, or nuclear proteins or whole proteins (whole lysate) of liver tissues, was confirmed through immunohistochemical staining and Western blot. The immunohistochemical staining was performed using anti-CD44 antibody and anti-CD44ICD antibody by the method of Example 5.2.3, and Western blot was performed by the method of Examples 2 and 4.

CD44 [3] = test: Western blot of CD44ICD in nuclear proteins of human pHSCs (CD44 cleavage); assay type: cell-based; conditions: 40 ng/ml, 24 hours, vs control (FIG. 3A)
Method: Specifically, pHSCs were treated with peptide YJ (40 ng/ml) for 0, 6, 12, or 24 hours, and then nuclear proteins were isolated. Western blotting was performed on the isolated nuclear proteins to confirm the expression of CD44 and CD44ICD. The nuclear proteins were obtained by a nuclear protein fractionation method.
At this time, the primary antibodies were used with anti-CD44 antibody (Abcam, ab157107), anti-CD44ICD antibody (Cosmo Bio, KAL-KO601), and anti-LAMIN B1 antibody (Abcam, ab16048), and the secondary antibody was used with Goat anti-Rabbit IgG antibody (HRP conjugate) (Enzo, ADI-SAB-300-J). In addition, human pHSCs treated with PBS were used as a control group. The CD44 and CD44ICD expression results were normalized to the expression level of LAMIN B1, which was an internal control group, and expressed as mean±SEM values obtained from the same experiment repeated three times.

[4] = test system: alcohol-related liver disease mouse model; test: Liver size/weight and serum AST/ALT in alcohol-related liver disease mouse model; assay type: in vivo, C57BL/6 male mice
Method: as §1
Specifically, 20 μl of mouse serum was mixed with 100 μl of a GOT buffer or GPT buffer, and then reacted at 37° C. Thereafter, the mixture was added with a 0.0198% 2,4-dinitrophenylhydrazine colorimetric solution (100 μl), and then further reacted at room temperature for 20 minutes. Thereafter, the mixture was added with 0.4 N NaOH (1 ml) to terminate the reaction, and absorbance (505 nm) was measured. The absorbance was expressed in international units per liter (IU/L).
as §2
The weight and degree of tissue damage of the liver tissue extracted from the experimental mice of Example 5.3 were measured in the same manner as in Example 5.2.1.

human pHSCs [5] = test: RT-qPCR and Western blot of fibrosis/activation markers in human pHSCs; assay type: cell-based; conditions: 40 ng/ml, 24 and 48 hours, vs control (FIGS. 3C, 3D)
Method: In addition, after pHSCs were treated with peptide YJ for 24 and 48 hours by the same method as above, respectively, RNA and protein were extracted (whole lysate) and the expression of pHSCs activation markers was confirmed through RT-qPCR (FIG. 3C) and Western blot (FIG. 3D). Western blot was performed using the same method as in Example 2, and RNA extraction and RT-qPCR were performed as follows. At this time, human pHSCs treated with PBS were used as a control group.
First, total RNA was extracted from each cell using a Trizol solution (Invitrogen, 15596-026), and then the concentration and purity of RNA were confirmed using a nanodrop. Thereafter, complementary DNA (cDNA) was synthesized using the RNA as a template using the SuperScript First-strand Synthesis System (Invitrogen, 18064014). The cDNA synthesized by the method was used as sample DNA in quantitative real-time PCR (qPCR).
The quantitative real-time PCR (qPCR) was performed using Power SYBR Green Master Mix (Applied Biosystem), and the results were analyzed by a […] method. The qPCR results were analyzed for significance using Mean±SEM values of three independent experiments through one-way ANOVA followed by post hoc Tukey's test.

[6] = test system: alcohol-related liver disease mouse model; test: Triglyceride accumulation in liver tissue of alcohol-related liver disease mouse model; assay type: in vivo, C57BL/6 male mice; conditions: 3.3 μg/kg i.p. every other day for three weeks
Text: as §1
Triglycerides in the liver tissue obtained by the method of Example 5.2 were measured using the following method.
In addition, the accumulation of triglycerides in the liver tissue was confirmed using Oil red O staining.
Specifically, the liver tissue extracted from the mice was embedded in OCT and frozen-stored at −80° C. The liver tissue embedded in OCT was cut into 6 μm-thick sections to produce tissue section slides and then fixed by treating 4% paraformaldehyde. The tissue section slides were washed with distilled water and treated with 100% propylene glycol ([…], Sigma-Aldrich), and triglycerides were stained with Oil Red O (Sigma-Aldrich). After staining, the section slides were washed with 60% PEG, and the nuclei were counterstained with hematoxylin. The liver tissue section slides produced as described above were observed under a microscope to confirm the accumulation of triglycerides in the liver tissue. […]

[7] = EtOH diet group, vs vehicle, Western blot (FIG. 8B)
[8] = 3.3 μg/kg i.p. every other day for three weeks, EtOH diet group, vs vehicle (FIG. 6C)

peptide YJ: TSG-6 fragment: core domain RSGKYKLTYAEAKA plus C-terminal extension VCEFEGGHLATYKQLEAARKIGFHVCAAGWMAK (SEQ ID NO: 9); TSG-6 mimetic (RSGKYKLTYAEAKAVCEFEGGHLATYKQLEAARKIGFHVCAAGWMAK; peptide 4)
expression of GFAP (inactivation marker) (human pHSCs [1]): increased
expression of activation markers of pHSCs (human pHSCs [1]): decreased
expression of CD44ICD in whole lysate of liver tissue (CD44 [2]; [7]): reduced
expression of CD44 in whole lysate of liver tissue (CD44 [2]; [7]): reduced
expression of CD44ICD in nuclear protein of liver tissue (CD44 [2]; EtOH diet group, vs vehicle, Western blot (FIG. 8C)): significantly reduced
expression of CD44 in liver tissue (CD44 [2]; immunohistochemical staining (FIG. 8A)): decreased
nuclear expression and accumulation of CD44ICD (CD44 [3]): significantly reduced
serum ALT level [4, 8]: decreased
serum AST level [4, 8]: decreased
size and weight of the liver tissue ([4]; 3.3 μg/kg intraperitoneally every other day for three weeks, between groups (FIGS. 6A, 6B)): did not show statistically significant differences
expression of COL1α1 (human pHSCs [5]; RT-qPCR and Western blot): decreased
expression of CTGF (human pHSCs [5]; RT-qPCR and Western blot): decreased
expression of TGF-β (human pHSCs [5]; RT-qPCR and Western blot): decreased
expression of TIMP1 (human pHSCs [5]; RT-qPCR and Western blot): decreased
expression of α-SMA (human pHSCs [5]; RT-qPCR and Western blot): decreased
expression of GFAP (inactivation marker of pHSCs) (human pHSCs [5]): increased
amount of triglycerides in the liver tissue ([6]; EtOH diet group, vs vehicle (FIG. 6D)): significantly reduced
size and number of lipid droplet in the liver tissue ([6]; H&E staining (FIG. 6E)): significantly reduced
